These are literature values, as cited in patent US20140037570A1, “NBPT solution for preparing urease inhibited urea fertilizers prepared from N-alkyl; N, N-alkyl; and N-alkyl-N-alkoxy amino alcohols” (Whitehurst Associates Inc., priority 2012, published 2014).

For the data set the following is noted: background statement on NBPT.

`CCCCNP(N)(N)=S` [NBPT, N-(n-butyl)thiophosphoric triamide]: the stability result is reported as “thermally unstable”.
